Where “and” joins values, the source holds several entries; their conditions need not be identical. Equal values may be shown once. Numbers after ± are expanded uncertainties.
Assay: xn = mol fraction of the nth substance listed
Conditions: Capillary rise

FCF [difluoromethane] + CCC
surface tension liquid-gas (280 K, x2 = 0.01): 9.7 ± 0.4 mN/m
surface tension liquid-gas (280 K, x2 = 0.013): 9.4 ± 0.4 mN/m
surface tension liquid-gas (280 K, x2 = 0.037): 9.5 ± 0.4 mN/m
surface tension liquid-gas (280 K, x2 = 0.07): 9 ± 0.4 mN/m
surface tension liquid-gas (280 K, x2 = 0.087): 8.7 ± 0.4 mN/m
surface tension liquid-gas (280 K, x2 = 0.092): 8.4 ± 0.4 mN/m
surface tension liquid-gas (280 K, x2 = 0.115): 8.5 ± 0.4 mN/m
surface tension liquid-gas (280 K, x2 = 0.12): 8.4 ± 0.4 mN/m
surface tension liquid-gas (280 K, x2 = 0.121): 8 ± 0.4 mN/m
surface tension liquid-gas (280 K, x2 = 0.123): 8.2 ± 0.4 mN/m
surface tension liquid-gas (280 K, x2 = 0.124): 8.2 ± 0.4 mN/m
surface tension liquid-gas (280 K, x2 = 0.131): 7.9 ± 0.4 mN/m
surface tension liquid-gas (280 K, x2 = 0.141): 8 ± 0.4 mN/m
surface tension liquid-gas (280 K, x2 = 0.515): 6.4 ± 0.4 mN/m
surface tension liquid-gas (280 K, x2 = 0.588): 6.5 ± 0.4 mN/m
surface tension liquid-gas (280 K, x2 = 0.605): 6.5 ± 0.4 mN/m
surface tension liquid-gas (280 K, x2 = 0.648): 6.8 ± 0.4 mN/m and 6.7 ± 0.4 mN/m
surface tension liquid-gas (280 K, x2 = 0.662): 6.8 ± 0.4 mN/m
surface tension liquid-gas (280 K, x2 = 0.682): 6.8 ± 0.4 mN/m
surface tension liquid-gas (280 K, x2 = 0.697): 7 ± 0.4 mN/m
surface tension liquid-gas (280 K, x2 = 0.706): 7.1 ± 0.4 mN/m
surface tension liquid-gas (280 K, x2 = 0.729): 7.1 ± 0.4 mN/m
surface tension liquid-gas (280 K, x2 = 0.755): 7.4 ± 0.4 mN/m
surface tension liquid-gas (280 K, x2 = 0.775): 7.4 ± 0.4 mN/m
surface tension liquid-gas (280 K, x2 = 0.813): 7.8 ± 0.4 mN/m
surface tension liquid-gas (280 K, x2 = 0.826): 7.8 ± 0.4 mN/m
surface tension liquid-gas (280 K, x2 = 0.898): 8.4 ± 0.4 mN/m
surface tension liquid-gas (280 K, x2 = 0.931): 8.8 ± 0.4 mN/m
surface tension liquid-gas (280 K, x2 = 0.942): 8.9 ± 0.4 mN/m
surface tension liquid-gas (280 K, x2 = 0.968): 9.1 ± 0.4 mN/m
surface tension liquid-gas (290 K, x2 = 0.002): 8.1 ± 0.4 mN/m
surface tension liquid-gas (290 K, x2 = 0.003): 8 ± 0.4 mN/m
surface tension liquid-gas (290 K, x2 = 0.004): 8 ± 0.4 mN/m
surface tension liquid-gas (290 K, x2 = 0.005): 7.9 ± 0.4 mN/m
surface tension liquid-gas (290 K, x2 = 0.039): 7.5 ± 0.4 mN/m
surface tension liquid-gas (290 K, x2 = 0.065): 7.2 ± 0.4 mN/m
surface tension liquid-gas (290 K, x2 = 0.078): 7 ± 0.4 mN/m
surface tension liquid-gas (290 K, x2 = 0.081): 7.2 ± 0.4 mN/m
surface tension liquid-gas (290 K, x2 = 0.09): 7.1 ± 0.4 mN/m
surface tension liquid-gas (290 K, x2 = 0.095): 6.9 ± 0.4 mN/m
surface tension liquid-gas (290 K, x2 = 0.097): 6.9 ± 0.4 mN/m
surface tension liquid-gas (290 K, x2 = 0.114): 6.6 ± 0.4 mN/m
surface tension liquid-gas (290 K, x2 = 0.143): 6.5 ± 0.4 mN/m
surface tension liquid-gas (290 K, x2 = 0.156): 6.3 ± 0.4 mN/m
surface tension liquid-gas (290 K, x2 = 0.175): 5.9 ± 0.4 mN/m
surface tension liquid-gas (290 K, x2 = 0.185): 5.9 ± 0.4 mN/m
surface tension liquid-gas (290 K, x2 = 0.198): 6 ± 0.4 mN/m
surface tension liquid-gas (290 K, x2 = 0.209): 5.7 ± 0.4 mN/m
surface tension liquid-gas (290 K, x2 = 0.485): 5 ± 0.4 mN/m
surface tension liquid-gas (290 K, x2 = 0.506): 4.9 ± 0.4 mN/m
surface tension liquid-gas (290 K, x2 = 0.525): 5 ± 0.4 mN/m
surface tension liquid-gas (290 K, x2 = 0.539): 5.1 ± 0.4 mN/m
surface tension liquid-gas (290 K, x2 = 0.58): 5.1 ± 0.4 mN/m
surface tension liquid-gas (290 K, x2 = 0.596): 5.1 ± 0.4 mN/m
surface tension liquid-gas (290 K, x2 = 0.604): 5.2 ± 0.4 mN/m
surface tension liquid-gas (290 K, x2 = 0.648): 5.6 ± 0.4 mN/m
surface tension liquid-gas (290 K, x2 = 0.691): 5.9 ± 0.4 mN/m
surface tension liquid-gas (290 K, x2 = 0.768): 6.1 ± 0.4 mN/m
surface tension liquid-gas (290 K, x2 = 0.805): 6.4 ± 0.4 mN/m
surface tension liquid-gas (290 K, x2 = 0.896): 7 ± 0.4 mN/m
surface tension liquid-gas (290 K, x2 = 0.917): 7.3 ± 0.4 mN/m
surface tension liquid-gas (290 K, x2 = 0.925): 7.4 ± 0.4 mN/m
surface tension liquid-gas (290 K, x2 = 0.975): 7.7 ± 0.4 mN/m
surface tension liquid-gas (290 K, x2 = 0.986): 7.9 ± 0.4 mN/m
surface tension liquid-gas (290 K, x2 = 0.999): 8.1 ± 0.4 mN/m
surface tension liquid-gas (300 K, x2 = 0.02): 6 ± 0.4 mN/m
surface tension liquid-gas (300 K, x2 = 0.045): 5.7 ± 0.4 mN/m
surface tension liquid-gas (300 K, x2 = 0.087): 5.4 ± 0.4 mN/m
surface tension liquid-gas (300 K, x2 = 0.11): 5.2 ± 0.4 mN/m
surface tension liquid-gas (300 K, x2 = 0.12): 5 ± 0.4 mN/m
surface tension liquid-gas (300 K, x2 = 0.124): 5 ± 0.4 mN/m
surface tension liquid-gas (300 K, x2 = 0.149): 4.6 ± 0.4 mN/m
surface tension liquid-gas (300 K, x2 = 0.154): 4.7 ± 0.4 mN/m
surface tension liquid-gas (300 K, x2 = 0.22): 4.1 ± 0.4 mN/m
surface tension liquid-gas (300 K, x2 = 0.573): 4 ± 0.4 mN/m
surface tension liquid-gas (300 K, x2 = 0.682): 4.5 ± 0.4 mN/m
surface tension liquid-gas (300 K, x2 = 0.692): 4.7 ± 0.4 mN/m
surface tension liquid-gas (300 K, x2 = 0.703): 4.7 ± 0.4 mN/m
surface tension liquid-gas (300 K, x2 = 0.744): 4.9 ± 0.4 mN/m
surface tension liquid-gas (300 K, x2 = 0.748): 5.1 ± 0.4 mN/m
surface tension liquid-gas (300 K, x2 = 0.761): 5 ± 0.4 mN/m
surface tension liquid-gas (300 K, x2 = 0.771): 5.1 ± 0.4 mN/m
surface tension liquid-gas (300 K, x2 = 0.782): 5.1 ± 0.4 mN/m
surface tension liquid-gas (300 K, x2 = 0.79): 5.2 ± 0.4 mN/m
surface tension liquid-gas (300 K, x2 = 0.824): 5.5 ± 0.4 mN/m
surface tension liquid-gas (300 K, x2 = 0.834): 5.4 ± 0.4 mN/m
surface tension liquid-gas (300 K, x2 = 0.838): 5.5 ± 0.4 mN/m
surface tension liquid-gas (300 K, x2 = 0.852): 5.6 ± 0.4 mN/m
surface tension liquid-gas (300 K, x2 = 0.865): 5.8 ± 0.4 mN/m
surface tension liquid-gas (300 K, x2 = 0.881): 5.8 ± 0.4 mN/m
surface tension liquid-gas (300 K, x2 = 0.893): 6 ± 0.4 mN/m
surface tension liquid-gas (300 K, x2 = 0.897): 5.9 ± 0.4 mN/m
surface tension liquid-gas (300 K, x2 = 0.911): 6 ± 0.4 mN/m
surface tension liquid-gas (300 K, x2 = 0.918): 6.2 ± 0.4 mN/m
surface tension liquid-gas (300 K, x2 = 0.938): 6.4 ± 0.4 mN/m
surface tension liquid-gas (300 K, x2 = 0.982): 6.8 ± 0.4 mN/m
surface tension liquid-gas (300 K, x2 = 0.994): 6.7 ± 0.4 mN/m
surface tension liquid-gas (300 K, x2 = 0.999): 6.9 ± 0.4 mN/m

Source: the NIST ThermoML archive (doi:10.1021/je800756r)
